Test results taken from US10000521B2 (priority 2013, dated 2018).
Entries after “also recorded” stand apart in the source; their conditions may differ.

How the values were obtained:
[1] = test system: Huh7; assay: TC50 assay in different human cell lines (96 h), Huh7; type: cell-based; details: Huh-7, about 96 h, MTS assay
Procedure: (§1) The 96-well plate with cells incubated with test compound was removed from the 37° C. incubator. The appropriate amounts of the MTS and PMS reagents were removed from the kit and mixed well. The reagents were maintained in the dark due to their light sensitivity. […] The solutions were mixed completely in the wells prior to each reading.
(§2) Plating Cells: Huh7, HEPG2, HEK293, MCF-7, or BxPC3 cells (which can be obtained from American Type Culture Collection, ATCC) were passaged when they were about 70% confluent. […] The cells following passaging were allowed to attach for about 24 hours at 37° C.
(§3) The plates were then returned to the incubator, and cells incubated for about 96 h at 37° C.
(§4) MTS Assay: Assay was carried out as described above.

[2] = TC50 assay in different human cell lines (96 h), HEK293; type: cell-based; details: HEK293 cells, about 96 h, MTS assay
Procedure: as §1, §2, §3, §4

[3] = test system: PK9 cells; assay: TC50 assay, effect of deficient deoxycytidine kinase activity, PK9 cells; type: cell-based; details: Homo sapiens, 48 h, read-out: TC50 (μM), 48 h treatment
Procedure: Plating Cells: PK9 or RPK9 cells were seeded in 96-well plates at a density of 2,500 cells/well or 2,500 cells/well, respectively, and the plates were incubated at 37° C. for 24 h to allow for cell attachment.
Treating with Control & Compound 1: The cells were treated with each compound at final concentrations ranging from 500 μM to 0 μM in triplicate in media containing 2% FBS and 0.5% DMSO.
The RPK9 cells are described in Saiki, T., et al. (2012) Biochim. Biophys. Res. Commun. 421, 98-104).

[4] = test system: Huh7 cells; assay: TC50 assay with inhibition of ENT1, Huh7 cells; type: cell-based; details: Homo sapiens, Huh-7, 48 h, Huh7 cells (48 h)
Procedure: (§5) Plating Cells: Huh7 cells or PK9 cells were seeded in 96-well plates at a density of 5,000 cells/well or 2,500 cells/well, respectively, and the plates were incubated at 37° C. for 24 h to allow for cell attachment.
(§6) Treatment with equilibrative nucleoside transporter 1 (ENT1) Inhibitor: The media was then removed from the plates and replaced with media containing 2% FBS, 0.5% DMSO, and either 10 μM dipyramidole or 10 μM S-(4-nitrobenzyl)-6-thioinosine (NBTI).
(§7) Treating with Control & Compound 1: After incubation with the ENT1 inhibitor, the cells were treated with each compound at final concentrations ranging from 500 μM to 0 μM in triplicate in media containing 2% FBS, 0.5% DMSO, and either 10 μM dipyridamole or 10 μM NBTI.

[5] = Stability test at different pH conditions (HPLC); type: physicochemical
Procedure: HPLC analysis: 100 μl of the incubated solution was loaded onto a Vydac C18 analytical column 4.6/250, and the mobile phase run at 1 mL/min water with the following procedures: a. Inject 100 μl the incubated solution; b. Water for 5 minutes at 1 ml/min; c. 0-100% acetonitrile over 30 minutes; d. Back to 100% water.
Analysis: Standard HPLC analysis software was used to quantitate the area under each peak. Degradation peaks were quantitated as a percentage of the peak of the same amount of control sample (no heat treatment).

[6] = In vivo pharmacokinetic assessment (LC-MS/MS, plasma and liver); details: mice, oral
Procedure: All pharmacokinetic studies were performed with CD-1 ICR mice (female, 4-6 week old; 20-30 gram body weight), and three mice were used at each dose level and at each time point for each compound tested. […] Tetrahydrouridine (THU) was immediately added to plasma samples at a final concentration of 25 μg/mL to prevent deamination of dFdC after collection, and the samples were subsequently flash-frozen and stored at −80° C. until analysis. Approximately 200-300 mg of each mouse liver was dissected and homogenized in 150 μL of phosphate buffered saline (PBS) containing 25 μg/mL THU, resulting in 2 mg liver/μL saline homogenate. These liver homogenates were also flash-frozen and stored at −80° C. until analysis. Equivalent amounts of blood plasma and liver tissue were also collected from untreated mice and used to prepare calibration standards and quality controls. An LC-MS/MS assay was utilized to simultaneously quantify the concentrations of compound 1, dFdC and dFdU in each of the plasma and liver samples.

[7] = test system: MCF-7; assay: TC50 assay in different human cell lines (96 h), MCF-7; type: cell-based; details: MCF7, about 96 h, MTS assay
Procedure: as §1, §2, §3, §4

[8] = test system: CD-1 ICR mice; assay: In vivo toxicology assessment
Procedure: All in vivo toxicology assays were performed with CD-1 ICR mice (female, 4-6 week old; 20-30 gram body weight). Groups of one to five mice were treated at each dose level. In one study, compound 1 was prepared at concentrations ranging from 0.1 mg/mL to 30 mg/mL in dimethyl sulfoxide (DMSO) and 200 μL of each solution was administered via oral gavage to mice at final doses of 0.67, 2.0, 6.7, 20, 67 and 200 mg/kg.
A second study was carried out using a different vehicle. As above, CD-1 ICR mice (female, 4-6 week old; 20-30 gram body weight) were used. Groups of one to five mice were treated at each dose level. Compound 1 was prepared in Formulation I (5% DMSO/10% Solutol/17% (2-Hydroxypropyl)-β-cyclodextrin in aqueous solution) at concentrations ranging from 0.03 mg/mL to 1.0 mg/mL, and administered orally. Briefly, mice were treated with 200 μL of compound 1 in Formulation I via oral gavage at final doses of 2.4 mg/kg and 8.0 mg/kg. In a parallel study, compound 1 was administered intravenously. Briefly, mice were injected with 100 μL of compound 1 in Formulation I at final doses ranging from 0.12 mg/kg to 4.0 mg/kg.

[9] = test system: PK9 cells; assay: TC50 assay with inhibition of ENT1, PK9 cells; type: cell-based; details: Homo sapiens, PK9, 48 h, PK9 cells (48 h)
Procedure: as §5, §6, §7

[10] = test system: BxPC3; assay: TC50 assay in different human cell lines (96 h), BxPC3; type: cell-based; details: BXPC-3, about 96 h, MTS assay
Procedure: as §1, §2, §3, §4

[11] = test system: HEPG2; assay: TC50 assay in different human cell lines (96 h), HEPG2; type: cell-based; details: about 96 h, MTS assay
Procedure: as §1, §2, §3, §4

O=C(Nc1ccn(C2O[C@H](CO)[C@@H](O)C2(F)F)c(=O)n1)c1ccc2c(c1)OCO2 (stereo partly drawn) [Compound 1, N-(1-((4R,5R)-3,3-difluoro-4-hydroxy-5-(hydroxymethyl)tetrahydrofuran-2-yl)-2-oxo-1,2-dihydropyrimidin-4-yl)benzo[d][1,3]dioxole-5-carboxamide]
CC50 [1]: 7040 nM | CC50 at 96 h [2]: 4090 nM | CC50 [3]: 1.63 ± 0.1 µM | CC50 ([4]; 10 μM NBTI): 440000 ± 190000 nM | CC50 ([4]; 10 μM dipyridamole): 410000 ± 110000 nM | CC50 ([4]; ENT1 inhibitor: None): 473000 ± 74000 nM | Compound remaining (%) ([5]; Pretreatment): 100% | Compound remaining (%) ([5]; pH 1, 40° C., 4 h): 64% | Compound remaining (%) ([5]; pH 2, 40° C., 4 h): 100% | Compound remaining (%) ([5]; pH 4, 40° C., 4 h): 100% | Compound remaining (%) ([5]; pH 6, 40° C., 4 h): 100% | Compound remaining (%) ([5]; pH 8, 40° C., 4 h): 92% | distribution of gemcitabine produced by hydrolysis, liver versus plasma [6]: higher concentration in the liver than in plasma | linearity of dFdC exposure vs. compound 1 dosage ([6]; 1.0-8.0 mg/kg): linear pharmacokinetics | Liver AUCobs of compound 1 ([6]; dose 1.0 mg/kg): 1.10 µmol·min/L | Plasma AUCobs of compound 1 ([6]; dose 1.0 mg/kg): 0.95 µmol·min/L | Plasma AUCobs of dFdC converted from compound 1 ([6]; dose 1.0 mg/kg): 0.26 µmol·min/L | Liver AUCobs of compound 1 ([6]; dose 4.0 mg/kg): 7.84 µmol·min/L | Plasma AUCobs of compound 1 ([6]; dose 4.0 mg/kg): 3.45 µmol·min/L | Plasma AUCobs of dFdC converted from compound 1 ([6]; dose 4.0 mg/kg): 5.03 µmol·min/L | Liver AUCobs of compound 1 ([6]; dose 8.0 mg/kg): 9.53 µmol·min/L | Plasma AUCobs of compound 1 ([6]; dose 8.0 mg/kg): 3.71 µmol·min/L | Plasma AUCobs of dFdC converted from compound 1 ([6]; dose 8.0 mg/kg): 9.45 µmol·min/L | first-pass metabolism to inactive metabolite dFdU ([6]; plasma and liver samples): less of the inactive metabolite dFdU; also recorded: reduced first pass metabolism to the inactive metabolite dFdU | CC50 [7]: 1190 nM | tolerability / toxicity ([8]; IV in Formulation I, 0.12 to 4.0 mg/kg, 48 hour observation): well-tolerated and no toxicity was observed | tolerability / toxicity ([8]; oral gavage in DMSO, 0.67-200 mg/kg, 24 hour observation): well-tolerated and no toxicity was observed | tolerability / toxicity ([8]; oral gavage in Formulation I, 2.4 and 8.0 mg/kg, 48 hour observation): well-tolerated and no toxicity was observed | CC50 ([9]; 10 μM NBTI): 2920 ± 410 nM | CC50 ([9]; 10 μM dipyridamole): 610 ± 310 nM | CC50 ([9]; ENT1 inhibitor: None): 1630 ± 100 nM | CC50 [10]: 720 nM | CC50 [11]: 2810 nM
